Results taken from patent publication US20120316137A1, “Methods and Compositions for Treating Cancer” (priority 2009, published 2012).
Values joined by “and” are separate entries in the source; they are usually repeats but may differ in a detail not shown here. Equal entries are not always repeated. “Also recorded” adds a separate entry of the source.

Experiments:
[1] = system: refractory hematologic malignancies (CML, Ph+ ALL); experiment: Phase 1 clinical trial: hematologic, cytogenetic and molecular responses; type: in vivo, human; conditions: for complete hematologic response (CHR) in CP patients: overall best response
From the text: Fifty-seven patients (30 males) were enrolled and treated, median age 61 years (range 26-85) and median years from diagnosis 5.4 (0-21). Diagnoses included 50 CML (37 chronic [CP], 7 accelerated [AP], 6 blast phase [BP]), 3 Ph+ ALL, and 4 other malignancies (2 myelofibrosis, 1 myeloma, and 1 MDS).

[2] = system: Kasumi-1 cells (c-KIT N822K); experiment: Cell viability assay (72 h); type: cell-based; conditions: Homo sapiens, Kasumi 1, 72 h, read-out: Cell viability IC50 (nM)
[3] = system: MV4-11 xenografts (FLT3-ITD); experiment: MV4-11 subcutaneous xenograft efficacy; type: in vivo, CB.17 SCID mice
[4] = system: KatoIII gastric cancer cells (FGFR2 Amp/truncate); experiment: Cell growth assay (72 h); type: cell-based; conditions: Homo sapiens, KATO III
[5] = system: MFE-296 endometrial cancer cells (FGFR2 N549K); experiment: Cell growth assay (72 h); type: cell-based; conditions: Homo sapiens
[6] = system: MGH-U3 bladder cancer cells, mutant FGFR3b (Y375C); experiment: Cell growth assay (72 h); type: cell-based; conditions: MGH-U3; read-out: Cell growth GI50
[7] = system: FGFR2-mutant AN3CA tumor xenograft; experiment: AN3CA xenograft, compound 1 and ridaforolimus (Example 9); type: in vivo, nude mice
[8] = system: Ba/F3 cells expressing native BCR-ABL
[9] = system: OPM2 multiple myeloma cells, mutant FGFR3 (K650E); experiment: cells; conditions: Homo sapiens, OPM-2, read-out: Cell growth GI50 (nM)
c-MER = c-MER (Homo sapiens, UniProt Q12866); experiment: Kinase assay (RBC)
Sequence of c-MER (Q12866 587-858 limits assumed): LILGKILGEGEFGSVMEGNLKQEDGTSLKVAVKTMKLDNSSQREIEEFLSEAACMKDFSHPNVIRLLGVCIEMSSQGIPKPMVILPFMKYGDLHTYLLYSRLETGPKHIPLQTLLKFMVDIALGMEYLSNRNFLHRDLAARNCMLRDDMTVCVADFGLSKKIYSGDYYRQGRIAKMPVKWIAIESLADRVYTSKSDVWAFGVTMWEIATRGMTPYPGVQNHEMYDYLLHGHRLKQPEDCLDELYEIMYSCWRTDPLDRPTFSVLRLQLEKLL

PKC8 = experiment: Kinase assay (RBC); conditions: 10 μM ATP
[10] = system: Phospho-Erk1/2 in SNU1 cells; experiment: Western immunoblotting; conditions: Homo sapiens, SNU1, read-out: Phospho-Erk1/2 IC50 (nM)
[11] = system: Phospho-FRS2a in Hec1B cells; experiment: Western immunoblotting; conditions: Homo sapiens, HEC-1B, read-out: Phospho-FRS2a IC50 (nM)
[12] = system: Phospho-FRS2a in MFE-296 cells; experiment: Western immunoblotting; conditions: Homo sapiens, MFE-296, read-out: Phospho-FRS2a IC50 (nM)
[13] = system: Phospho-Erk1/2 in Hec1B cells; experiment: Western immunoblotting; conditions: Homo sapiens, HEC-1B, read-out: Phospho-Erk1/2 IC50 (nM)
[14] = system: Phospho-Erk1/2 in MFE-296 cells; experiment: Western immunoblotting; conditions: Homo sapiens, MFE-296, read-out: Phospho-Erk1/2 IC50 (nM)
P-FRS2a in OPM2 cells = experiment: Western immunoblotting; conditions: Homo sapiens, OPM-2, read-out: IC50 for P-FRS2a
[15] = system: KG1 cells (FGFR1OP2-FGFR1); experiment: Cell viability assay (72 h); conditions: Homo sapiens, KG-1, 72 h, read-out: Cell viability IC50 (nM)
RS4;11 cells (wt) = experiment: Cell viability assay (72 h); conditions: Homo sapiens, RS4-11, 72 h, read-out: Cell viability IC50 (nM)
[16] = system: Ba/F3 cells expressing BCR-ABL^T315I; experiment: Ba/F3 subcutaneous tumor model
[17] = system: MV4-11, Kasumi-1, KG1 and EOL1 cells (panel); experiment: Cell viability assay, panel summary; conditions: read-out: IC50 for inhibition of viability of all 4 cell lines
[18] = system: FGFR2 signaling in AN3CA endometrial cells (N549K); experiment: Signaling (Western immunoblotting), Table 12; conditions: Homo sapiens, AN3-CA, read-out: Signaling IC50 (nM)
[19] = system: FGFR3 signaling in MGH-U3 bladder cells (Y375C); experiment: Signaling (Western immunoblotting), Table 12; conditions: read-out: Signaling IC50 (nM)
[20] = system: FGFR3 signaling in OPM2 myeloma cells (K650E); experiment: Signaling (Western immunoblotting), Table 12; conditions: Homo sapiens, OPM-2, read-out: Signaling IC50 (nM)
[21] = system: Ba/F3 cells expressing BCR-ABL^T315I; experiment: CrkL phosphorylation immunoblot in Ba/F3 cells; conditions: 4 h
[22] = system: wild-type FLT3 primary blasts; experiment: Ex vivo viability of primary AML cells (MTS, 72 h)
[23] = T315I patients evaluable for CyR

Cc1ccc(C(=O)Nc2ccc(CN3CCN(C)CC3)c(C(F)(F)F)c2)cc1C#Cc1cnc2cccnn12 [Compound 1, 3-(imidazo[1,2-b]pyridazin-3-ylethynyl)-4-methyl-N-(4-((4-methylpiperazin-1-yl)-methyl)-3-(trifluoromethyl)phenyl)benzamide]
AP, BP, or ALL patients achieving CCyR [1, 23]: 1 | AP, BP, or ALL patients achieving MCyR [1, 23]: 3 | CP patients achieving CCyR [1, 23]: 5 | CP patients achieving MCyR [1, 23]: 6 | MHR in AP, BP, or ALL patients ([1]; T315I subset): 3 of 8 | MMRs in patients with T315I at baseline ([1]; human, in vivo): 4 | MMRs ([1]; in 32 CP patients): 8 | MCyR ([1]; overall): 12 | complete cytogenetic responses (CCyR) ([1]; overall): 8 | major hematologic response (MHR) in AP, BP, or ALL patients ([1]; overall): 5 of 12 | complete hematologic response (CHR) in CP patients [1]: 85% | complete hematologic response (CHR) in CP patients ([1]; incl. new and baseline CHR): 22 of 22 | IC50 [2]: 8 nM | TGI ([3]; 1 mg/kg oral once daily, 28 days, day 0 to day 24): 46% | tumor response ([3]; 10 or 25 mg/kg, 31-day follow up): complete and durable tumor regression | GI50 [4]: 0.007 µM | GI50 [5]: 0.072 µM | GI50 [6]: 0.163 µM and 0.204 µM | TGI (%) ([7]; Compound 1 10 mg/kg alone): 26% | TGI (%) ([7]; Compound 1 30 mg/kg alone): 81% | differential in sensitivity between cells expressing native BCR-ABL and parental cells [8]: greater than 3000 fold | GI50 [9]: 120 nM | IC50 (c-MER): 0.406 µM | IC50 (PKC8): > 1 µM | IC50 [10]: > 1000 nM | IC50 [11]: > 1000 nM | IC50 [12]: 2.7 nM | IC50 [13]: > 1000 nM | IC50 [14]: 5.5 nM | IC50 (P-FRS2a in OPM2 cells): 0.065 µM | IC50 [15]: 17 nM | IC50 (RS4;11 cells (wt)): > 100 nM | % T/C ([16]; 10 mg/kg daily oral): 68% | % T/C ([16]; 30 mg/kg daily oral): 20% | % T/C ([16]; 50 mg/kg daily oral): 0.9% | reduction in mean tumor volume at final measurement compared to start of treatment ([16]; 50 mg/kg daily oral): 96% | levels of phosphorylated BCR-ABL and phosphorylated CrkL in tumors ([16]; single oral dose 30 mg/kg, 6 hr): markedly decreased levels of phosphorylated BCR-ABL and phosphorylated CrkL | IC50 [17]: 0.0005 to 0.017 µM | IC50 [18]: 4 nM | IC50 [19]: 40 nM | IC50 [20]: 80 nM | effect on CrkL phosphorylation [21]: only compound 1 demonstrated activity against the T315I mutant; also recorded: marked reduction in % pCrkL | IC50 ([22]; Homo sapiens, 72 h, read-out: IC50, viability): > 0.1 µM | effect on viability ([22]; concentrations tested up to 100 nM, 72 hours): no reduction in viability
